The source of these data is patent US20150353495A1 (PORTOLA PHARMACEUTICALS, INC., priority 2010, published 2015).

Experiment [1] relates to JAK1/3 signaling to STAT5 in primary T cells. Briefly: IL2 stimulation of JAK1/3 signaling to STAT5 in primary T cells (pSTAT5 Y694, FACS). Format: cell-based. To be noted: T-cell; for inhibition at 0.2 µM: 0.2 uM compound, read-out: IL-2/STAT5 Percent Inhibition at 0.2 uM; for inhibition at 1 µM: 1.0 μM compound, read-out: IL-2/STAT5 Percent Inhibition at 1.0 μM. On the procedure:
IL2 Stimulation of JAK1/3 Signaling to STAT5 in Primary T Cells:
The effect of JAK inhibitors on cytokine signaling pathways utilizing JAK3 was determined using an IL2 stimulation assay. IL2 engages a receptor complex that contains the IL2 receptor alpha and beta subunits, and the common gamma chain, to initiate activation of JAK1 and JAK3 leading to phosphorylation of STAT5 at tyrosine position 694. Lymphocytes are isolated from heparinized whole blood over a ficoll gradient, then resuspended in tissue culture media containing 10% fetal calf serum at 10×10̂6 cells/ml. 100 μl aliquots are pre-treated for 1 hour with various concentrations of compound, and then stimulated for 12 minutes with 100 U/ml IL2. The signaling reaction is terminated by fixing in 2% paraformaldehyde for 10 minutes at room temperature. Fixed cells are then washed and permeablized by suspension in 50% methanol (in PBS) at −80° C. Following overnight incubation at 4° C., cells are washed and resuspended in PBS containing 0.5% bovine serum albumin containing CD3-APC and pSTAT5 Y694-PE conjugated antibodies. After 1 hour incubation, cells are washed and the extent of STAT5 phosphorlyation in T cells is measured by FACS analysis.

Another experiment deals with T1, JAK1 (Homo sapiens, UniProt P23458).
T1 construct: 5 μl of catalytic domain recombinant Kinase enzyme+Tyr peptide substrate (Invitrogen, CA); purchased Invitrogen
Briefly: Z'-LYTE kinase assay JAK1. The class given is biochemical. The method in brief:
(§1)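 Read-out is FRET fluorescence between coumarin and fluorescein on a Tyr6 peptide, lost when the development protease cleaves unphosphorylated substrate. Kinase reaction used recombinant catalytic domain with ATP, 1 h at room temperature, 1% DMSO.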

The next experiment has as its target T2, JAK3 (Homo sapiens, UniProt P52333).
T2 construct: 5 μl of catalytic domain recombinant Kinase enzyme+Tyr peptide substrate (Invitrogen, CA); purchased Invitrogen
Kind of experiment: Z'-LYTE kinase assay JAK3. The class given is biochemical. The method in brief:
as §1

Another experiment concerns the target T3, TYK2 (Homo sapiens, UniProt P29597).
T3 construct: 5 μl of catalytic domain recombinant Kinase enzyme+Tyr peptide substrate (Invitrogen, CA); purchased Invitrogen
T3 sequence (P29597 897-1176 limits assumed): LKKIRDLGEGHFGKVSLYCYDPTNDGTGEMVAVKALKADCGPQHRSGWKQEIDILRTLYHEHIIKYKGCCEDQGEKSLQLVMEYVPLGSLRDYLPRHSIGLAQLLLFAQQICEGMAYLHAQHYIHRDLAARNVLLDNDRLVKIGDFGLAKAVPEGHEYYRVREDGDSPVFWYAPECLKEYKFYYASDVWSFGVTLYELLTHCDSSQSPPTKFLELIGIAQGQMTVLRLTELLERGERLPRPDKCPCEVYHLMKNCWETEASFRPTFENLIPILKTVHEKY
Briefly: Z'-LYTE kinase assay TYK2. The class given is biochemical. The gist of the method:
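Recombinant catalytic-domain TYK2 with Tyr6 peptide in Z′-LYTE FRET format, 1% DMSO final, kinase reaction 1 h at room temperature, then protease development 1 h. Fluorescence read at 445/520 nm (excitation 400 nm), percent phosphorylation vs no-inhibitor control, IC50 from 4-parameter logistic fit.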

Another experiment addresses T4, JAK2 (Homo sapiens, UniProt O60674).
T4 construct: 5 μl of catalytic domain recombinant Kinase enzyme+Tyr peptide substrate (Invitrogen, CA); purchased Invitrogen
Kind of experiment: Z'-LYTE kinase assay JAK2. The class given is biochemical. The gist of the method:
as §1

Experiment [2] relates to JAK1/3 signaling to STAT6 in Ramos B cells. Briefly: IL4 stimulation of JAK1/3 signaling to STAT6 in Ramos B cells (pSTAT6 Y641, FACS). The conditions noted are these: Homo sapiens; for inhibition at 0.2 µM: 0.2 uM compound, read-out: IL-4/STAT6 in Ramos Percent Inhibition at 0.2 uM; for inhibition at 1 µM: 1.0 uM compound, read-out: IL-4/STAT6 in Ramos Percent Inhibition at 1.0 uM. The class given is cell-based. The gist of the method: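 Ramos cells in 10% FCS medium were pre-treated 1 h with compound, stimulated 15 min with 15 ng IL4, fixed in 2% paraformaldehyde and methanol-permeabilized. Intracellular phospho-STAT6 Y641 was stained with PE-conjugated antibody and quantified by flow cytometry.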

T2 sequence (P52333 822-1111 limits assumed): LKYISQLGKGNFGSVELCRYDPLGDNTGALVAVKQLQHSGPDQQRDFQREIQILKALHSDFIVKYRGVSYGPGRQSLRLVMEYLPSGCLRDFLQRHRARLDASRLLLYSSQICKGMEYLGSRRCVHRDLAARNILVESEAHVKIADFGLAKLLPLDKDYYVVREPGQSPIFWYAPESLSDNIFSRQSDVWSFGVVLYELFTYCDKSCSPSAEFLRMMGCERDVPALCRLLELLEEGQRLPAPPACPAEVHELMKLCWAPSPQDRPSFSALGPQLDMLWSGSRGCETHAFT
T4 sequence (O60674 849-1124 limits assumed): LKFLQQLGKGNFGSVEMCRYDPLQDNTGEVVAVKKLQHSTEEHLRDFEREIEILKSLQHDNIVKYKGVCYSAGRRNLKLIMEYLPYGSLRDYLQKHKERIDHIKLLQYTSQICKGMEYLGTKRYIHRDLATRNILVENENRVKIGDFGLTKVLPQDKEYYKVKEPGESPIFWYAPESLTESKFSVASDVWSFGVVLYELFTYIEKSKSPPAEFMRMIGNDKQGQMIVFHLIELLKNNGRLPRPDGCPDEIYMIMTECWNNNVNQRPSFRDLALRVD
T1 sequence (P23458 875-1153 limits assumed): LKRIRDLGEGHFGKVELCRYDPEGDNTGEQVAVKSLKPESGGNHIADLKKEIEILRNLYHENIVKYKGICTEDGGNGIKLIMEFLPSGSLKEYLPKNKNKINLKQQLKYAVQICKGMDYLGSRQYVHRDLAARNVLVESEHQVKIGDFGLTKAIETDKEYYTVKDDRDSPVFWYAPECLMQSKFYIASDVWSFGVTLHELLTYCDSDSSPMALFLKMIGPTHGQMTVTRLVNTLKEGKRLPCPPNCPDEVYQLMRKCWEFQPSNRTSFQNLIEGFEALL

Consider `COc1ccc(Nc2cc(NCc3cccc4[nH]ccc34)c(C(N)=O)cn2)cc1` [Example 294, 4-((1H-indol-4-yl)methylamino)-6-(4-methoxyphenylamino)nicotinamide], for which the inhibition at 0.2 µM in experiment [1] was determined as 75%. Also, the inhibition at 1 µM in experiment [1] was 102%. For the same molecule, the IC50 (as a rule, the concentration at which inhibition is half-maximal) lay in the range of 0.01 to 0.1 µM against JAK1, 0.001 to 0.01 µM on JAK3, 0.1 to 1 µM at TYK2 and 0.01 to 0.1 µM against JAK2.

With `Cc1cc(Nc2cc(NCc3cccc4ccsc34)c(C(N)=O)cn2)ccc1C(=O)N1CCC1` [Example 457, 6-(4-(azetidine-1-carbonyl)-3-methylphenylamino)-4-(benzo[b]thiophen-7-ylmethylamino)nicotinamide], the inhibition at 0.2 µM in experiment [1] came to 56%. Also, the inhibition at 1 µM in experiment [1] was 100%. The IC50 against JAK1 is 0.1 to 1 µM; against JAK3 it was under 0.001 µM; at TYK2, 0.1 to 1 µM; against JAK2 it was 0.01 to 0.1 µM.

Take `Cc1cc(Nc2cc(NCc3cccc4cc[nH]c34)c(C(N)=O)cn2)ccc1C(=O)N(C)C` [Example 283, 4-((1H-indol-7-yl)methylamino)-6-(4-(dimethylcarbamoyl)-3-methylphenylamino)nicotinamide]: the inhibition at 0.2 µM in experiment [1] was 42%. Also, in experiment [1], the inhibition at 1 µM turned out to be 65%. For the same molecule, the IC50 against JAK1 was over 1 µM; on JAK3, 0.001 to 0.01 µM; against TYK2, over 1 µM; at JAK2, 0.01 to 0.1 µM.

With `CN(C)C(=O)c1ccc(Nc2cc(NCc3cccc(-c4ccncc4)c3)c(C(N)=O)cn2)cc1` [Example 412, 6-(4-(dimethylcarbamoyl)phenylamino)-4-(3-(pyridine-4-yl)benzylamino)nicotinamide], in experiment [1], the inhibition at 0.2 µM was determined as 25%. In addition, the inhibition at 1 µM in experiment [1] worked out at 59%. In addition, the IC50 against JAK1 lay within 0.1 to 1 µM; at JAK3, 0.001 to 0.01 µM; against JAK2 it was 0.1 to 1 µM.

`NC(=O)c1cnc(Nc2ccc(OC(F)F)cc2)cc1NCc1cccc2[nH]ccc12` [Example 321, 4-((1H-indol-4-yl)methylamino)-6-(4-(difluoromethoxy)phenylamino)nicotinamide]: the inhibition at 0.2 µM in experiment [1] was 42%. Moreover, in experiment [1], the inhibition at 1 µM was 94%. For the same molecule, the IC50 is 0.1 to 1 µM at JAK1, 0.01 to 0.1 µM against JAK3, over 1 µM at TYK2 and 0.1 to 1 µM against JAK2.

For the molecule `CC(=O)N1CC(c2ccc(Nc3cc(NCc4cccc5ccsc45)c(C(N)=O)cn3)cc2)C1` [Example 333, 6-(4-(1-acetylazetidin-3-yl)phenylamino)-4-(benzo[b]thiophen-7-ylmethylamino)nicotinamide], the inhibition at 0.2 µM in experiment [1] turned out to be 35%. The inhibition at 1 µM in experiment [1] was 84%. Besides, the IC50 against JAK1 lay within 0.1 to 1 µM; against JAK3 it was 0.001 to 0.01 µM; against JAK2 it was 0.01 to 0.1 µM.

Take `Cc1cc(Nc2cc(NCc3cccc4[nH]ccc34)c(C(N)=O)cn2)ccc1C(=O)N1CCCC1` [Example 461, 4-((1H-indol-4-yl)methylamino)-6-(3-methyl-4-(pyrrolidine-1-carbonyl)phenylamino)nicotinamide]: the inhibition at 0.2 µM in experiment [1] amounted to 94%. Further, the inhibition at 1 µM in experiment [1] was determined as 101%. For the same molecule, the IC50 was 0.001 to 0.01 µM on JAK1, under 0.001 µM at JAK3, 0.001 to 0.01 µM on TYK2 and under 0.001 µM at JAK2.

Regarding `NC(=O)c1cnc(Nc2ccc(N3CCN(c4ccccn4)CC3)cc2)cc1NCc1ccccc1` [Example 385], in experiment [1], the inhibition at 0.2 µM came out at 37%. Also, in experiment [1], the inhibition at 1 µM came out at 62%. The results for the IC50 at JAK1, at JAK3 and at JAK2 were over 1 µM, 0.01 to 0.1 µM and over 1 µM, respectively.

Regarding `NC(=O)c1cnc(Nc2ccc(C3CCNCC3)cc2)cc1NCc1cccc(F)c1` [Example 70, 4-(3-fluorobenzylamino)-6-(4-(piperidin-4-yl)phenylamino)nicotinamide], the IC50 lay in the range of 0.1 to 1 µM against JAK1, 0.001 to 0.01 µM against JAK3, 0.1 to 1 µM against TYK2 and 0.01 to 0.1 µM at JAK2. The inhibition at 0.2 µM in experiment [2] turned out to be 23%. For the same molecule, in experiment [2], the inhibition at 1 µM worked out at 45%.

Turning to `NC(=O)c1cnc(Nc2ccc(C(=O)N3CCOCC3)cc2)cc1NCc1ccccc1` [Example 40, 4-(benzylamino)-6-(4-(morpholine-4-carbonyl)phenylamino)nicotinamide], the IC50 at JAK1 was 0.1 to 1 µM; against JAK3, 0.001 to 0.01 µM; on TYK2, 0.1 to 1 µM; on JAK2, 0.1 to 1 µM. Besides, in experiment [2], the inhibition at 0.2 µM was found to be 46%. For the same molecule, in experiment [2], the inhibition at 1 µM stood at 69%.

In the case of `NC(=O)c1cnc(Nc2ccc(OCCN3CCCCC3)cc2)cc1NCc1ccccc1` [Example 81, 4-(benzylamino)-6-(4-(2-(piperidin-1-yl)ethoxy)phenylamino)nicotinamide], the IC50 at JAK1 is over 1 µM; against JAK3, 0.01 to 0.1 µM; on TYK2, over 1 µM; at JAK2, 0.1 to 1 µM. Moreover, the inhibition at 0.2 µM in experiment [2] was 29%. Besides, in experiment [2], the inhibition at 1 µM came to 48%.

As to `CC(=O)N1CCC(c2ccc(Nc3cc(NCc4ccccc4F)c(C(N)=O)cn3)cc2)CC1` [Example 115, 6-(4-(1-acetylpiperidin-4-yl)phenylamino)-4-(2-fluorobenzylamino)nicotinamide], the IC50 against JAK1 is 0.1 to 1 µM; against JAK3, 0.01 to 0.1 µM; against TYK2 it was 0.1 to 1 µM; at JAK2 it was 0.1 to 1 µM. Further, in experiment [2], the inhibition at 0.2 µM amounted to 31%. In addition, the inhibition at 1 µM in experiment [2] amounted to 64%.

For the molecule `CC(=O)N1CCN(c2ccc(Nc3cc(NCc4ccccc4F)c(C(N)=O)cn3)cc2)CC1` [Example 258, 6-(4-(4-acetylpiperazin-1-yl)phenylamino)-4-(2-fluorobenzylamino)nicotinamide], the IC50 against JAK1 was in the range of 0.1 to 1 µM; against JAK3, 0.001 to 0.01 µM; against TYK2, 0.1 to 1 µM; at JAK2, 0.01 to 0.1 µM. The inhibition at 0.2 µM in experiment [2] was 39%. In addition, in experiment [2], the inhibition at 1 µM was determined as 63%.

Consider `NC(=O)c1cnc(Nc2ccc(CN3CCOCC3)cc2)cc1NCc1ccccc1` [Example 431, 4-(benzylamino)-6-(4-(morpholinomethyl)phenylamino)nicotinamide], for which the IC50 at JAK1 was over 1 µM; against JAK3, 0.001 to 0.01 µM; on TYK2, over 1 µM; against JAK2, 0.1 to 1 µM. In addition, in experiment [2], the inhibition at 0.2 µM was determined as 7%. For the same molecule, the inhibition at 1 µM in experiment [2] stood at 24%.

Consider `NC(=O)c1cnc(Nc2ccc(N3CCCCC3=O)cc2)cc1NCc1cc(F)ccc1F` [Example 94, 4-(2,5-difluorobenzylamino)-6-(4-(2-oxopiperidin-1-yl)phenylamino)nicotinamide], for which the IC50 against JAK1 lay in the range of 0.1 to 1 µM; against JAK3 it was 0.001 to 0.01 µM; against TYK2, 0.1 to 1 µM; against JAK2, 0.01 to 0.1 µM. In addition, in experiment [2], the inhibition at 0.2 µM came out at 35%. Also, the inhibition at 1 µM in experiment [2] was determined as 62%.

As for `NC(=O)c1cnc(Nc2ccc(C(=O)N3CCCC3)cc2)cc1NCC1CCCC1` [Example 41, 4-(cyclopentylmethylamino)-6-(4-(pyrrolidine-1-carbonyl)phenylamino)nicotinamide], the IC50 against JAK1 lay within 0.1 to 1 µM; against JAK3 it was 0.01 to 0.1 µM; against TYK2 it was 0.01 to 0.1 µM; against JAK2 it was 0.1 to 1 µM. In addition, in experiment [2], the inhibition at 0.2 µM was 31%. Besides, in experiment [2], the inhibition at 1 µM worked out at 59%.

On to `NC(=O)c1cnc(Nc2ccc(N3CCOCC3)cc2)cc1Nc1ccc(N2CCOCC2)cc1` [Example 16, 4,6-bis(4-morpholinophenylamino)nicotinamide], for which the IC50 was over 1 µM on JAK1, 0.01 to 0.1 µM at JAK3, over 1 µM against TYK2 and over 1 µM against JAK2. Moreover, the inhibition at 0.2 µM in experiment [2] stood at 17%. Moreover, the inhibition at 1 µM in experiment [2] worked out at 46%.
